The source made the active and inactive calls.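 How the source made its calls: active means a tumor-causing dose value with its tumor site reported for any sex and species group of a rodent or other animal cancer study; inconclusive means only studies judged inadequate by the national testing program; inactive means tested in at least one study, none positive.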

This data set is described as follows: DSSTox (CPDBAS) Carcinogenic Potency Database Summary SingleCellCall Results. The note with it: animal chronic carcinogenicity bioassays, CPDB summary call. Put shortly: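 Categorical carcinogenicity call compiled from published chronic rodent and other animal cancer bioassays; based on the most positive result across experiments for each sex-species, assigned on minimal evidence for or against activity.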
For the molecule `CC1CN(N=O)CC(C)N1C(=O)c1ccccc1` (stereo unspecified), the outcome was active. As for `C[C@H]1CCCC(=O)CCC/C=C/c2cc(O)cc(O)c2C(=O)O1`, the entry is “active”; as for `N#Cc1c(Cl)c(Cl)c(Cl)c(C#N)c1Cl`, “active; inactive”; as for `C[C@]12CC[C@H](OS(=O)(=O)O)CC1=CC[C@@H]1[C@@H]2CC[C@]2(C)C(=O)CC[C@@H]12`, “inactive; active”. As for `C=COC(C)=O`, the entry is “active”. As for `O=NN1CCCN(N=O)C1`, the entry is “active”; as for `Oc1ccccc1-c1ccccc1`, “active”. For the molecule `CCCCNNCCCC`, the outcome is “active; inactive”.

As for `P`, the outcome was inactive.

For the molecule `ClCOCCl`, the outcome was “active; inactive”. Turning to `Clc1cc2c(c(Cl)c1Cl)Oc1c(cc(Cl)c(Cl)c1Cl)O2`, the result was active.

For `CS(=O)(=O)OCCCCOS(C)(=O)=O`, the outcome was inactive. As to `CC1CO1` (stereo unspecified), the result was active. As for `OCCOCCOCCO`, the entry is “inactive”; as for `ClCC1CO1` (stereo unspecified), “active”.

Turning to `CC(O)CN(CC(C)O)CC(C)O` (stereo unspecified), the outcome is “inactive; active”. As for `Nc1nnc(-c2ccc([N+](=O)[O-])o2)o1`, the entry is “active”; as for `Oc1ccccc1O`, “active”; as for `[O]=[Mo](=[O])=[O]`, “active”. As for `CC(=O)Oc1c(C)c(C)c2c(c1C)CCC(C)(CCCC(C)CCCC(C)CCCC(C)C)O2` (stereo unspecified), the entry is “inactive”; as for `C=CCN(CCO)N=O`, “active”. In the case of `CCCCC(C)(O)C/C=C/[C@H]1[C@H](O)CC(=O)[C@@H]1CCCCCCC(=O)OC` (stereo partly specified), the outcome was “inactive; active”.

Turning to `COc1ccccc1N`, the result was active. As to `CN(N=O)c1ccncc1`, the outcome is “inactive; active”.

`O=C([O-])C(=O)O.O=C([O-])C(=O)O.[K+].[K+].[O]=[Ti]`: the outcome is “inactive; active”. For the molecule `CCCCN(N)CCCC`, the outcome was active. As for `Brc1cc(-c2ccc(Br)c(Br)c2Br)cc(Br)c1Br`, the entry is “inactive; active”; as for `O=CNc1nc(-c2ccc([N+](=O)[O-])o2)cs1`, “active”. As for `Nc1nc(-c2ccc([N+](=O)[O-])o2)cs1`, the entry is “active”; as for `C=CC(O)c1ccc2c(c1)OCO2` (stereo unspecified), “active”; as for `CCCCNC(=O)NS(=O)(=O)c1ccc(C)cc1`, “inactive”. Consider `O=[N+]([O-])c1ccccc1`, for which the result was active.

As for `CC(=O)Nc1nnc(-c2ccc([N+](=O)[O-])o2)s1`, the result was active. Consider `CCCCC1(COC(=O)CCC(=O)O)C(=O)N(c2ccccc2)N(c2ccccc2)C1=O`, for which the result was inactive. As for `CCN(Cc1cccc(S(=O)(=O)O)c1)c1ccc(C(=C2C=CC(=[N+](CC)Cc3cccc(S(=O)(=O)[O-])c3)C=C2)c2ccc(S(=O)(=O)O)cc2)cc1`, the entry is “active”; as for `CN(C)CCN(Cc1ccsc1)c1ccccn1`, “inactive; active”; as for `CCCCN(CCCC)C(=S)[S-].CCCCN(CCCC)C(=S)[S-].[Ni+2]`, “inactive; active”. In the case of `N[C@@H](CS)C(=O)O`, the outcome was inactive.

For the molecule `CCCC(Cl)CCC(Cl)CCC(Cl)CCC(Cl)CCC(Cl)CCC(Cl)CCC(C)Cl` (stereo unspecified), the outcome was active.

In the case of `C=Cc1ccc(C)cc1`, the outcome was inactive. `ClCCCl`: the outcome was active. As for `O=C(Oc1ccccc1)Oc1ccccc1`, the entry is “inactive”.

As to `CCCCCc1cc(O)c2c(c1)OC(C)(C)[C@@H]1CCC(C)=C[C@@H]21`, the outcome was “inactive; active”. As for `C[C@]12CC[C@H](O)CC1=CC[C@@H]1[C@@H]2CC[C@]2(C)C(=O)CC[C@@H]12`, the entry is “active”; as for `COc1ccc(O)c(C(C)(C)C)c1`, “active; inactive”; as for `CNC(=O)Oc1cccc2c1OC(C)(C)C2`, “inactive”. On to `BrC(Br)Br`, for which the outcome is “active; inactive”.

Turning to `COc1ccc([N+](=O)[O-])cc1N=Nc1c(O)c(C(=O)Nc2cccc([N+](=O)[O-])c2)cc2ccccc12`, the outcome was “inactive; active”.

For `C=CCNNCC=C`, the outcome is “active; inactive”.

`O=C(O)[C@@H]1[C@H](C(=O)O)[C@@]2(Cl)C(Cl)=C(Cl)[C@]1(Cl)C2(Cl)Cl`: the result was active. Regarding `CCCc1c(OCCCCc2nn[nH]n2)ccc(C(C)=O)c1O`, the outcome was active. On to `Clc1ccc(C(c2ccc(Cl)cc2)C(Cl)(Cl)Cl)cc1`, for which the result was active. As for `Clc1ccc(-c2cccc(Cl)c2Cl)c(Cl)c1`, the entry is “active”.

Take `NNC(=O)c1ccccc1`: the result was active.

In the case of `CCNc1nc(Cl)nc(NC(C)C)n1`, the outcome was active.

For `O=c1cc(CO)occ1O`, the result was active. As to `COP(=O)(OC)C(O)C(Cl)(Cl)Cl` (stereo unspecified), the result was inactive. On to `Nc1ccc(N=Nc2ccc(-c3ccc(N=Nc4c(S(=O)(=O)O)cc5cc(S(=O)(=O)O)c(N=Nc6ccccc6)c(O)c5c4N)cc3)cc2)c(N)c1`, for which the outcome was “active; inactive”. `NC(=O)N/N=C/c1ccc([N+](=O)[O-])o1`: the result was active.

For `c1ccc2c(c1)[nH]c1cnccc12`, the outcome was inactive. As to `[Cl-].[Cl-].[Sn+2]`, the result was inactive. As for `FC(F)Cl`, the entry is “inactive”. For the molecule `O=CNNc1nc(-c2ccc([N+](=O)[O-])o2)cs1`, the outcome was active. As for `OCCO`, the entry is “inactive”; as for `CCN(CC)CCOc1ccc(/C(=C(\Cl)c2ccccc2)c2ccccc2)cc1`, “inactive; active”. As for `CCCCCCCC(=O)OCC(COC(=O)CCCCCCC)OC(=O)CCCCCCC`, the entry is “active”; as for `C/C=C(\C)C(=O)O[C@@H]1CCN2CC=C(COC(=O)C(O)(C(C)C)C(C)O)[C@H]12` (stereo partly specified), “active”. As for `COc1cc(N)ccc1N=Nc1ccccc1`, the entry is “inactive; active”. In the case of `CCCOC(=O)c1cc(O)c(O)c(O)c1`, the outcome was inactive. In the case of `Cc1ccc2ncccc2c1`, the outcome was inactive.

As for `C#CC(C)(C)NC(=O)c1cc(Cl)cc(Cl)c1`, the outcome was active. In the case of `CC(=O)N[C@@H](CC(C)C)C(=O)N[C@@H](CC(C)C)C(=O)N[C@H](C=O)CCCN=C(N)N`, the outcome was “active; inactive”. Turning to `CC(=O)CN(CC(O)CO)N=O` (stereo unspecified), the result was active. As for `Cc1ccc2ccccc2c1`, the entry is “inactive; active”. With `C=CC(=O)c1ccc2c(c1)OCO2`, the outcome was inactive. As for `O=NN1CC=CCC1`, the entry is “active”. As for `CN1C(C(=O)Nc2ccccn2)=C(O)c2sc(Cl)cc2S1(=O)=O`, the entry is “inactive”; as for `CCOC(N)=O`, “active; inactive”; as for `O=S1OCCO1`, “inactive”. Regarding `FC(F)(Cl)C(F)(Cl)Cl`, the outcome was “inactive; active”.

As to `COc1c(Cl)c(Cl)c(Cl)c(Cl)c1Cl`, the result was active.

Source of the values: PubChem BioAssay AID1189 (EPA DSSTox, 2008).
